From patent US12083098B2, “Treatment of idiopathic pulmonary fibrosis with glycogen synthase kinase 3 form β inhibitors” (Actuate Therapeutics Inc., priority 2018, dated 2024)
Entries after “also recorded” stand apart in the source; their conditions may differ.

Tests used:
[1] = test system: bleomycin-induced pulmonary fibrosis; assay: Bleomycin-induced pulmonary fibrosis model in mice; type: in vivo, C57BL/6 mice
Description: All animal studies were approved by the Institutional Animal Care and Use Committee at the University of Texas Health Science Center at Tyler. C57BL/6 mice (10-12 weeks of age, ≈20 g (from Jackson Laboratory, Bar Harbor ME) were first anesthetized with xylazine/ketamine by intraperitoneal (TP) injection. Lung injury was then initiated in accordance with (Sisson T H et al., Am J Pathol 2015, 185:[…]) with some modifications. Bleomycin sulfate (Teva, 0.8 units/kg) was administered intratracheally via an intratracheal cannula. Animals were monitored daily for sign of respiratory distress, significant weight loss or moribund condition. The control group received normal saline under the same conditions.
Treatments were begun 14 d after the initiation of injury. For GSK-3β inhibitor studies, treatment with 9-ING-41 (gift from Actuate Therapeutics, Ft. Worth, TX), at 30 mg/kg, or vehicle control dimethylsulfoxide/DMSO in a volume of 40 μl, was administered daily by IP injection for up to 14 d.
At the completion of the 28 d time course mice were evaluated by flexivent (Tucker T et al., Am J Respir Cell Mol Biol 2019 (doi: 10.1165/rcmb.2018-0121OC. Epub ahead of print); Kamata H et al., Sci Rep 2017, 7:4556; Boren J et al., supra; Tucker T A et al., 2014, supra; Tucker T A et al., Clin Transl Med 5: 17, 2016) for changes in pulmonary function including elastance and compliance. Briefly, mice were anesthetized with a ketamine/xylazine mixture. Anesthetized mice were intubated by inserting a sterile, 20-gauge intravenous cannula through the vocal cords into the trachea and were maintained under anesthesia using isoflurane during pulmonary function testing. Measurements were performed using the flexiVent system (SCIREQ, Tempe AZ). The “snapshot perturbation method” was used to determine lung compliance, according to manufacturer's specifications. At 28 d, mice were euthanized and lungs harvested en bloc. Lung morphometry was determined by trichrome staining of 5 μm lung tissue sections as described in the above cited references. All tissue sections were first de-paraffinized and subjected to antigen retrieval using a citrate buffer at 95° C. for 20 minutes. Tissue analyses, collagen deposition and localization were initially assessed by Trichrome staining. Immunofluorescence was used to visualize α-SMA (MAB1420, R&D), Confocal microscopy was then used to visualize immunofluorescence and co-localization of the markers. Images were acquired from a field of view at 0.4-μm z-axis increments with the LSM 510 Meta confocal system (Carl Zeiss) at 40× as described.
(§1) All statistical analyses of animal studies was performed using the Mann Whitney U test. (Student's t-test was used for in vitro studies). A p-value of less than 0.05 was considered significant.

[2] = test system: TGF-β adenovirus induced pulmonary fibrosis; assay: TGF-β adenovirus-induced pulmonary fibrosis model in mice; type: in vivo
Description: In a second model, pulmonary fibrosis was initiated by intratracheal instillation of constitutively active TGF-β adenoviral vectors (Ad-TGF-β) bearing C223S/C225S mutations, as reported by Mackinnon A C et al., Am J Respir Crit Care Med 2012, 185:537-46) with some modifications. Briefly, 3×10^8 pfu of Ad-TGF-β or eGFP adenovirus control vector (Ad-eGFP) were administered intratracheally in a volume of 40 μl. Mice were then monitored daily until the completion of the 14 d time-course. For GSK-3β inhibition studies, mice received daily 9-ING-41 treatment 7 d after administration of the adenoviral vectors. At the conclusion of the time-course pulmonary function testing and CT scans were performed as described (Tucker T et al., 2019, supra; Kamata H et al., 2017, supra; Boren J et al., 2017, supra; Tucker T A et al., 2016, supra.
as §1
Pulmonary fibrosis was initiated by intratracheal instillation of constitutively active TGF-β adenoviral vectors (Ad-TGF-0) bearing C223S/C225S mutations, as previously reported (Mackinnon A C et al., Am J Respir Crit Care Med 2012, 185:537-46) with some modifications. Briefly, 3×10^8 plaque forming units (pfu) of Ad-TGF-β or eGFP adenovirus control vector (Ad-eGFP) were administered intratracheally in a volume of 40 μl. Mice were then monitored daily until the completion of the 14 d time-course. For GSK-3β inhibition studies, mice received daily 9-ING-41 treatment 7 d after administration of the adenoviral vectors. At the conclusion of the time-course pulmonary function testing and CT scans were performed as described (Tucker T et al., 2019, supra; Kamata H et al., 2017, supra; Boren J et al., 2017, supra; Tucker T A et al., 2016, supra.

## Cn1cc(C2=C(c3coc4ccc(F)cc34)C(=O)NC2=O)c2cc3c(cc21)OCO3 [9-ING-41]
[1]; bleomycin 0.8 U/kg intratracheal, 30 mg/kg daily ip from day 14, read at 28 d, vs DMSO vehicle, p=0.026, 30 mg/kg
  lung volume (gated CT scan): significantly improved; also recorded: increased lung volume
[1]; bleomycin injured lungs, compared to vehicle (DMSO) treated controls
  collagen 1 deposition in lung sections (immunostaining, confocal microscopy 40×): reduced
[1]; bleomycin model, 30 mg/kg daily ip, 5 μm sections, n=6, compared to vehicle treated animals
  areas of injury / fibrotic foci in lung sections (Trichrome): fewer in number and smaller
[1]; bleomycin model, 30 mg/kg daily ip, compared to DMSO-treated controls
  collagen deposition within the fibrotic lesions: generally reduced
[1]; bleomycin sulfate 0.8 U/kg intratracheal, 9-ING-41 30 mg/kg daily ip from day 14 for up to 14 d, read at 28 d, vs DMSO vehicle, p=0.04, 30 mg/kg
  lung compliance (Scireq flexivent): significantly improved; also recorded: improved lung function
[1]; marker of myofibroblast differentiation, n=3 mice/treatment, compared to vehicle (DMSO)
  α-SMA expression in lung sections (immunostaining, confocal microscopy 40×): reduced
[2]; Ad-TGF-β 3×10^8 pfu intratracheal, 9-ING-41 30 mg/kg daily ip from day 7 for 7 d, read at 14 d, n=6, p<0.05 vs controls, 30 mg/kg
  lung compliance: significantly improved; also recorded: improved lung function
[2]; TGF-β adenovirus model, at completion of 14 d time course
  lung volume: increased lung volume
[2]; TGF-β adenovirus model, compared to DMSO-treated controls, n=6
  areas of injury and collagen deposition in lung sections (Trichrome): reduced areas of injury
